Measured values published in patent US9551711B2, “Compositions and methods for detecting nitration of PKG-1α and methods of use thereof” (Augusta University Research Institute, Inc., priority 2013, dated 2017).

Columns and labels:
PKG-1α [1] = molecular target: T1, PKG-1α (Homo sapiens, UniProt Q13976); test: PKG catalytic activity, Michaelis-Menten kinetics for cGMP; format: biochemical; set-up: an expression plasmid containing a full length WT-PKG-1α cDNA; made in house; host or cells: HEK-293T; the results paragraph b304 says PASMC
T1 sequence (Q13976 2-671): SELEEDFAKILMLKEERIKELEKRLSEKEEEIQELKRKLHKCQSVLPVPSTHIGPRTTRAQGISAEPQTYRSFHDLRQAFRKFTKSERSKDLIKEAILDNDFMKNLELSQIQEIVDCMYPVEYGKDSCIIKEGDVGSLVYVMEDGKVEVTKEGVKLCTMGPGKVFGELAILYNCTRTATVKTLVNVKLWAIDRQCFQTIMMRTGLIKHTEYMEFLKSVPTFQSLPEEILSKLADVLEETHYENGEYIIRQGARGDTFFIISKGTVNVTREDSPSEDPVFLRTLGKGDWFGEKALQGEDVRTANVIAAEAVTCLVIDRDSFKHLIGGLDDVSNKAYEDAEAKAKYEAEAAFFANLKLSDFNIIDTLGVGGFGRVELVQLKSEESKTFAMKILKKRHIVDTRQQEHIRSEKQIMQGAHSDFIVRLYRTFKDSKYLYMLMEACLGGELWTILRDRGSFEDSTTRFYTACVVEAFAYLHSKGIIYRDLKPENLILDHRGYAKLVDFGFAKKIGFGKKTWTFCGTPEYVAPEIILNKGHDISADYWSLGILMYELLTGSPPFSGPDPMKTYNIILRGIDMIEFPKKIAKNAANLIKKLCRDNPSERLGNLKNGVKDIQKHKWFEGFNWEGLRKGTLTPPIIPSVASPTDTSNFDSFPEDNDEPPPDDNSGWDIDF
Experimental: (§1) Total PKG activity was determined using a non-radioactive immunoassay in cell lysates, according to the manufacturer's directions. Briefly, protein samples were diluted in kinase reaction buffer containing Mg^2+ and ATP (125 μM) in the presence or absence of 8-Br cGMP (10 μM) and incubated in a 96 well plate pre-coated with a PKG substrate containing threonine residues phosphorylated by PKG.
(§2) After incubation for 30 min at 30° C. to allow the phosphorylation of the bound substrate, an HRP conjugated anti-phosphothreonine specific antibody was added to convert a chromogenic substrate to a colorimetric substrate that was subsequently read spectrophotometrically at 450 nm. The change in absorbance reflected the relative activity of PKG in the sample. The results were reported as pmols of phosphate incorporated into the GST-G substrate fusion protein by active PKG in the sample in the presence or absence of cGMP (10 μM) per minute at 30° C. per μg of protein (pmol/min/μg). […] The kinetic constants were determined using nonlinear regression (curve fit) analysis (GraphPad Prism Software Inc.).
To determine the Michaelis-Menten constant (Km) for cGMP, the kinase assay was performed, as mentioned above; however, the cGMP concentration was titrated from 0-10 μM, while the ATP concentration remained constant at 125 μM.

PKG-1α [2] = molecular target: T1, PKG-1α; test: PKG activity in transfected PASMC; format: cell-based, lamb; set-up: an expression plasmid containing a full length WT-PKG-1α cDNA; expressed in transfected cells; host or cells: primary pulmonary artery smooth muscle cells (PASMC) from 4-week old lambs; details: PASMC transfected with WT-PKG-1α; SIN-1 500 μM, 48 h
Experimental: Therefore, the effect of these events were investigated in PASMC transiently transfected with expression plasmids containing WT- and Y247F-PKG-1α. The effect of nitration on pulmonary arterial smooth muscle cell (PASMC) growth and metabolism was determined. PASMC were transiently transfected with expression plasmids containing WT-PKG-1α, Y247F-PKG-1α or pDEST40 (as a control) for 20 h. Cells were then exposed or not to SIN-1 (500 μM, 48 h) and the effect on PKG protein levels (FIG. 2A) and activity determined (FIG. 2B).
as §1
as §2, with “sample.” for “sample. The results were reported as pmols of phosphate incorporated into the GST-G substrate fusion protein by active PKG in the sample in the presence or absence of cGMP (10 μM) per minute at 30° C. per μg of protein (pmol/min/μg).”

3-morpholinosydnonimine N-ethylcarbamide [SIN-1]
Vmax of the reaction (PKG-1α [1]; WT PKG-1α after SIN-1 challenge, ATP 125 μM, cGMP 0-10 μM): 0.28 pmol/min/µg | Km (PKG-1α [1]; WT-PKG-1α upon SIN-1 treatment, read-out: Michaelis-Menten constant (Km) for cGMP): 8.91 nM | cGMP dependent increase in PKG activity (PKG-1α [2]): attenuated
